Legend:
Assay type in all cases: biochemical
JAK3 = molecular target: T1, JAK3 (Homo sapiens, UniProt P52333); assay: JAK3 enzyme inhibition test (LANCE method); conditions: 1 μM test compound; read-out: JAK3 enzyme inhibitory activity (%, 1 μM)
T1 construct: purchased Invitrogen
T1 sequence (P52333 1-1124): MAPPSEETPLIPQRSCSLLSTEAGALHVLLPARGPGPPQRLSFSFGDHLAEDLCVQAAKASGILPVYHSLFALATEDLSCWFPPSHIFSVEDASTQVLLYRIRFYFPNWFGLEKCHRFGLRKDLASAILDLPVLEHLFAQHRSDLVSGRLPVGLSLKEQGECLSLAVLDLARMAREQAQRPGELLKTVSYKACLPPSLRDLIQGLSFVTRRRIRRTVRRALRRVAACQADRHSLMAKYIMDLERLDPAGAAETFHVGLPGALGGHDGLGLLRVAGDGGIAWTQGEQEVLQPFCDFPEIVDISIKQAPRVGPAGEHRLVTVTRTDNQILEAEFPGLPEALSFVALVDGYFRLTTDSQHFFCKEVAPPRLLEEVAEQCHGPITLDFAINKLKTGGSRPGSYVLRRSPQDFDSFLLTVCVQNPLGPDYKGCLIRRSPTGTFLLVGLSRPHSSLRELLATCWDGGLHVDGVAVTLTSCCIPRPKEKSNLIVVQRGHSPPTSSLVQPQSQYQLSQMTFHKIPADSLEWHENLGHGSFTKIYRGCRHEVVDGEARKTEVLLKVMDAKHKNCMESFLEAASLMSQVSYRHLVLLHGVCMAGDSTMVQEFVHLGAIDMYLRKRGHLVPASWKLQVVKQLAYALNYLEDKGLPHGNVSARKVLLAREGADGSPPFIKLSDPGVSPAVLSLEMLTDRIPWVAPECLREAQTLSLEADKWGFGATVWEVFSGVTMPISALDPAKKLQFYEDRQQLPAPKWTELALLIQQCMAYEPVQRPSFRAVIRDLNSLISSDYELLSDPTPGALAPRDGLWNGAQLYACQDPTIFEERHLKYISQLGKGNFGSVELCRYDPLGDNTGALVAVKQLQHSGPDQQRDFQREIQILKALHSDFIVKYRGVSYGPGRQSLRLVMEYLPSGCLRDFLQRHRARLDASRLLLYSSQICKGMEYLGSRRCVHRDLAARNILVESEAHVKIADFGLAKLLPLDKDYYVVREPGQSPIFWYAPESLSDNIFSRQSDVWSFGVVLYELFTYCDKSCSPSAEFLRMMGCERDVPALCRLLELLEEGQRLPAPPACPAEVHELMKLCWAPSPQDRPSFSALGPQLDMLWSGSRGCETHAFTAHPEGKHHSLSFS
Experimental: (§1) JAK3 enzyme inhibitory activity of test compounds was measured by the LANCE method (PerkinElmer). First, a test compound diluted with assay buffer (50 mM HEPES (pH 7.5), 10 mM MgCl2, 1 mM EGTA, 2 mM DTT, 0.01% Tween20, 0.01% BSA) was added to a 384-well plate by 2 μL each. Then, a JAK3 (Invitrogen) solution and a fluorescence-labeled peptide substrate (ULight-JAK1, PerkinElmer) solution diluted with assay buffer to 12 ng/mL and 300 nM, respectively, were added by 2 μL each. Then, an enzyme reaction was started by adding 2 μL each of ATP solution prepared with assay buffer to 15 μM. After the reaction at room temperature for 1 hr, Detection Buffer (PerkinElmer) prepared to contain 20 mM EDTA, 4 nM europium-labeled anti-phosphotyrosine antibody (PerkinElmer) was added by 6 μL each. After standing at room temperature for 1 hr, fluorescence intensity (excitation wavelength 340 nm, fluorescence wavelength 665 nm, delay time 100 microseconds) was measured by a plate reader, Envision (PerkinElmer). The inhibitory activity of each compound was calculated as a relative activity value to the fluorescence intensity of a well free of enzyme as 100% inhibition.

TYK2 = molecular target: T2, TYK2 (Homo sapiens, UniProt P29597); assay: TYK2 enzyme inhibition test (LANCE method); conditions: 1 μM test compound; read-out: TYK2 enzyme inhibitory activity (%, 1 μM)
T2 construct: purchased Invitrogen
T2 sequence (P29597 whole entry): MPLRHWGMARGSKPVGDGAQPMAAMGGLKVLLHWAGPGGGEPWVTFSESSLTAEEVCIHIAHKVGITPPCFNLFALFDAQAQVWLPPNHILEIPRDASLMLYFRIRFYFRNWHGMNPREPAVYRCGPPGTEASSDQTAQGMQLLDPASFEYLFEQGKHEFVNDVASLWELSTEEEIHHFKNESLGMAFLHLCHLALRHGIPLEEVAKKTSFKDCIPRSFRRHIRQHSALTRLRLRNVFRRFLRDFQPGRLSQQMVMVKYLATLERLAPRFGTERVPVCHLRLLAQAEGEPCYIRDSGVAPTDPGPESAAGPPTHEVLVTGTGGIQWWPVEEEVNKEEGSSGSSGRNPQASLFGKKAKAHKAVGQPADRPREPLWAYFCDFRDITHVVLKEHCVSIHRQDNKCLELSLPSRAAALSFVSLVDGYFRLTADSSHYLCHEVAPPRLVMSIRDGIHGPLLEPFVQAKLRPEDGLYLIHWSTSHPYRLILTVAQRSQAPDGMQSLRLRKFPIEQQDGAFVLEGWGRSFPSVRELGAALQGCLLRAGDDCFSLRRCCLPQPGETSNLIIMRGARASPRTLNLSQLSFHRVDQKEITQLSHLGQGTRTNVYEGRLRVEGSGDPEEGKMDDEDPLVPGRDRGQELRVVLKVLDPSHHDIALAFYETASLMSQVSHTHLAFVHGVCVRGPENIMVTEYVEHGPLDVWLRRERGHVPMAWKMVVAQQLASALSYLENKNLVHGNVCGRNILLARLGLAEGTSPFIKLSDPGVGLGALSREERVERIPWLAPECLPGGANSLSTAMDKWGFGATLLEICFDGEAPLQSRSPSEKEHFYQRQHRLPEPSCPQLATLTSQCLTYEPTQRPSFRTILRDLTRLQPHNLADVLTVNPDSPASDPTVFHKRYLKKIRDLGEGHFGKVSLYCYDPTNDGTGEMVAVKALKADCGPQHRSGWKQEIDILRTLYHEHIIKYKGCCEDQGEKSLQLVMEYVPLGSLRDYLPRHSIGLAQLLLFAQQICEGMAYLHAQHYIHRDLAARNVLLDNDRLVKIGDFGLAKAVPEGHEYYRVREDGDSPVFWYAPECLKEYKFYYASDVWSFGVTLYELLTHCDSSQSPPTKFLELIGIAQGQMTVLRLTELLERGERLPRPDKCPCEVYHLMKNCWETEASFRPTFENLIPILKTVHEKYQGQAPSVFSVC
Experimental: as §1, with “TYK2” for “JAK3”, “375” for “12”, “30” for “15”

JAK2 = molecular target: T3, JAK2 (Homo sapiens, UniProt O60674); assay: JAK2 enzyme inhibition test (LANCE method); conditions: 1 μM test compound; read-out: JAK2 enzyme inhibitory activity (%, 1 μM)
T3 construct: purchased Invitrogen
T3 sequence (O60674 whole entry): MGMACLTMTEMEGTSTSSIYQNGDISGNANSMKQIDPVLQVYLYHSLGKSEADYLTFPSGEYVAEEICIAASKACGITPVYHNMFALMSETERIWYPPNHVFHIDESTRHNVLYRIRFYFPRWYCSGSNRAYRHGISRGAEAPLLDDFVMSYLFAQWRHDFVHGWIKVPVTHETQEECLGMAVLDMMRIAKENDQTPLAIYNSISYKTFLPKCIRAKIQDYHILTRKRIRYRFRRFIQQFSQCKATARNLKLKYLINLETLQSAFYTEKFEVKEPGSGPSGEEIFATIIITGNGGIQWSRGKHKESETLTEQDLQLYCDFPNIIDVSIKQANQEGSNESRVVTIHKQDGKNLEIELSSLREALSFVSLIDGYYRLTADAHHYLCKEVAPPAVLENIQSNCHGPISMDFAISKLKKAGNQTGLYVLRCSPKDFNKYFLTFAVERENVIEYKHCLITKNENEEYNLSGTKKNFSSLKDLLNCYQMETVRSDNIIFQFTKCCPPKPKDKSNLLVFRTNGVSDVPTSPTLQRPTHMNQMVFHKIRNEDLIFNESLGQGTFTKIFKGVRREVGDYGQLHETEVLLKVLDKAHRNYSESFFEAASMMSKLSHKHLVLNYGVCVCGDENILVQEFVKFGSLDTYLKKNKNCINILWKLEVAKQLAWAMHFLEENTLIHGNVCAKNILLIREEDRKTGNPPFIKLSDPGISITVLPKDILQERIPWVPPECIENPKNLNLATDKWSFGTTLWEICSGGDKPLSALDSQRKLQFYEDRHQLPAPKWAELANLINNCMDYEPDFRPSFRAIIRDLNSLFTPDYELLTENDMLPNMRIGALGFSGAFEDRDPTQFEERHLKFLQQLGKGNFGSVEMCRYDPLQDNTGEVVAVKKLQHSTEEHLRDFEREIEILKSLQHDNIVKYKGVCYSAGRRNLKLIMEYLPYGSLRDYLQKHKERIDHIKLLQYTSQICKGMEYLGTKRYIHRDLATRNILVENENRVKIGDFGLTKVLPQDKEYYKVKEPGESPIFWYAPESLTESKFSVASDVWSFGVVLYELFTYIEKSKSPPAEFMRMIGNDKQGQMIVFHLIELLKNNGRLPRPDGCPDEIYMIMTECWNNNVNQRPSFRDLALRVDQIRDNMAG
Experimental: as §1, with “JAK2” for “JAK3”, “6” for “12”, “45” for “15”

JAK1 = molecular target: T4, JAK1 (Homo sapiens, UniProt P23458); assay: JAK1 enzyme inhibition test (LANCE method); conditions: 1 μM test compound; read-out: JAK1 enzyme inhibitory activity (%, 1 μM)
T4 construct: purchased Invitrogen
T4 sequence (P23458 whole entry): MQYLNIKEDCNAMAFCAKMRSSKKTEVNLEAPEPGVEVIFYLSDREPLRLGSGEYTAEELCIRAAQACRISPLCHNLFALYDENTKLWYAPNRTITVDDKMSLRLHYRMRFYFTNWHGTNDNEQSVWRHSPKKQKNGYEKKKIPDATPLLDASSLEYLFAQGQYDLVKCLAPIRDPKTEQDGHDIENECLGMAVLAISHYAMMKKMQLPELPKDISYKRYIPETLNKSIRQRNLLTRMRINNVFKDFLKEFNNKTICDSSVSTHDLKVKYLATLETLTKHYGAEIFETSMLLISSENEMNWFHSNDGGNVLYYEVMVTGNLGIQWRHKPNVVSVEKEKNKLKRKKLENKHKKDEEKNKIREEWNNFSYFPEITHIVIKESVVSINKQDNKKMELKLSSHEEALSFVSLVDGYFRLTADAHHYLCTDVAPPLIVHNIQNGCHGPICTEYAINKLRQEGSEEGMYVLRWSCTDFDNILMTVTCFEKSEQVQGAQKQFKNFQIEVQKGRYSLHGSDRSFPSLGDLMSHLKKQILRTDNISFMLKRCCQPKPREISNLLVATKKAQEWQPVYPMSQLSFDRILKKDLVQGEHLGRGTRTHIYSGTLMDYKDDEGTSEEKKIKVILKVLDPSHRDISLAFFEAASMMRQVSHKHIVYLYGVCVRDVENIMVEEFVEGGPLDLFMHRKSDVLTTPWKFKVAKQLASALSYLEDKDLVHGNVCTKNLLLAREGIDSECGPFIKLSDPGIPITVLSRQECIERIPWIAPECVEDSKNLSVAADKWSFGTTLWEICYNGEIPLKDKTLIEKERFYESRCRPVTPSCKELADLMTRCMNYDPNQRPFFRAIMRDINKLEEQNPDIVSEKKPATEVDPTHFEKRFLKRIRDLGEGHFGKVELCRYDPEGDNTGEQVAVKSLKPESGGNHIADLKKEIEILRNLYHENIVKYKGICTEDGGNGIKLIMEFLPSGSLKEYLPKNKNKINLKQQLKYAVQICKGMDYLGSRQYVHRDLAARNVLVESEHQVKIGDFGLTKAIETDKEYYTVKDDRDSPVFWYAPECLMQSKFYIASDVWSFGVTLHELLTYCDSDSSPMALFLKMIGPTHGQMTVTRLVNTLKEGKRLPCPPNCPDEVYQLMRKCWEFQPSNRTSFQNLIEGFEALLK
Experimental: as §1, with “JAK1” for “JAK3”, “187.5” for “12”, “150” for “15”

## CC(C1CC1)n1cc(-c2cc(N3CCOCC3)n(C)n2)c2[nH]nc(N)c2c1=O (racemic) [Example 4, 3-amino-5-(1-cyclopropylethyl)-7-(1-methyl-5-(morpholin-4-yl)-1H-pyrazol-3-yl)-1,5-dihydro-4H-pyrazolo[4,3-c]pyridin-4-one]
JAK3
  inhibition at 1 µM: 100%
TYK2
  inhibition at 1 µM: 99%
JAK2
  inhibition at 1 µM: 99%
JAK1
  inhibition at 1 µM: 99%

## Cn1nc(-c2cn(C3CCCC3(C)C)c(=O)c3c(N)n[nH]c23)cc1CN1CCS(=O)(=O)CC1 (racemic) [Example 72, 3-amino-5-(2,2-dimethylcyclopentyl)-7-(5-((1,1-dioxidothiomorpholin-4-yl)methyl)-1-methyl-1H-pyrazol-3-yl)-1,5-dihydro-4H-pyrazolo[4,3-c]pyridin-4-one]
JAK3
  inhibition at 1 µM: 100%
TYK2
  inhibition at 1 µM: 100%
JAK2
  inhibition at 1 µM: 100%
JAK1
  inhibition at 1 µM: 99%

## Cn1nc(-c2cn(C3CCCC3(C)C)c(=O)c3c(N)n[nH]c23)cc1N1CCOCC1 (racemic) [Example 73, 3-amino-5-(2,2-dimethylcyclopentyl)-7-(1-methyl-5-(morpholin-4-yl)-1H-pyrazol-3-yl)-1,5-dihydro-4H-pyrazolo[4,3-c]pyridin-4-one]
JAK3
  inhibition at 1 µM: 100%
TYK2
  inhibition at 1 µM: 100%
JAK2
  inhibition at 1 µM: 99%
JAK1
  inhibition at 1 µM: 99%

## CC(C)C(C#N)n1cc(-c2cc(N3CCOCC3)n(C)n2)c2[nH]nc(N)c2c1=O (racemic) [Example 112, 2-(3-amino-7-(1-methyl-5-(morpholin-4-yl)-1H-pyrazol-3-yl)-4-oxo-1,4-dihydro-5H-pyrazolo[4,3-c]pyridin-5-yl)-3-methylbutanenitrile]
JAK3
  inhibition at 1 µM: 99%
TYK2
  inhibition at 1 µM: 100%
JAK2
  inhibition at 1 µM: 98%
JAK1
  inhibition at 1 µM: 98%

## CC1CCCCC1n1cc(-c2cc(C(C)(C)O)n(C)n2)c2[nH]nc(N)c2c1=O (racemic) [Example 116, 3-amino-7-(5-(2-hydroxypropan-2-yl)-1-methyl-1H-pyrazol-3-yl)-5-(2-methylcyclohexyl)-1,5-dihydro-4H-pyrazolo[4,3-c]pyridin-4-one]
JAK3
  inhibition at 1 µM: 101%
TYK2
  inhibition at 1 µM: 102%
JAK2
  inhibition at 1 µM: 100%
JAK1
  inhibition at 1 µM: 101%

## CC1CCCCC1n1cc(-c2cc(N3CCOCC3)n(C)n2)c2[nH]nc(N)c2c1=O (racemic) [Example 146, 3-amino-5-(2-methylcyclohexyl)-7-(1-methyl-5-(morpholin-4-yl)-1H-pyrazol-3-yl)-1,5-dihydro-4H-pyrazolo[4,3-c]pyridin-4-one]
JAK3
  inhibition at 1 µM: 100%
TYK2
  inhibition at 1 µM: 100%
JAK2
  inhibition at 1 µM: 99%
JAK1
  inhibition at 1 µM: 99%

## CC(C)[C@H](C)n1cc(-c2cc(C(C)(C)O)n(C)n2)c2[nH]nc(N)c2c1=O [Example 1, 3-amino-7-(5-(2-hydroxypropan-2-yl)-1-methyl-1H-pyrazol-3-yl)-5-((2S)-3-methylbutan-2-yl)-1,5-dihydro-4H-pyrazolo[4,3-c]pyridin-4-one]
JAK3
  inhibition at 1 µM: 100%
TYK2
  inhibition at 1 µM: 99%
JAK2
  inhibition at 1 µM: 98%
JAK1
  inhibition at 1 µM: 97%

## CC(C)C(C)n1cc(-c2cc(C(C)(C)O)n(C)n2)c2[nH]nc(N)c2c1=O (centres unmarked) [Example 2, 3-amino-7-(5-(2-hydroxypropan-2-yl)-1-methyl-1H-pyrazol-3-yl)-5-(3-methylbutan-2-yl)-1,5-dihydro-4H-pyrazolo[4,3-c]pyridin-4-one]
JAK3
  inhibition at 1 µM: 99%
TYK2
  inhibition at 1 µM: 99%
JAK2
  inhibition at 1 µM: 98%
JAK1
  inhibition at 1 µM: 97%

## CC(C)[C@H](C)n1cc(-c2cc(C(C)(C)CO)n(C)n2)c2[nH]nc(N)c2c1=O [Example 3, 3-amino-7-(5-(1-hydroxy-2-methylpropan-2-yl)-1-methyl-1H-pyrazol-3-yl)-5-((2S)-3-methylbutan-2-yl)-1,5-dihydro-4H-pyrazolo[4,3-c]pyridin-4-one]
JAK3
  inhibition at 1 µM: 100%
TYK2
  inhibition at 1 µM: 100%
JAK2
  inhibition at 1 µM: 99%
JAK1
  inhibition at 1 µM: 98%

## C[C@@H](C1CC1)n1cc(-c2cc(N3CCOCC3)n(C)n2)c2[nH]nc(N)c2c1=O [Example 5, 3-amino-5-((1S)-1-cyclopropylethyl)-7-(1-methyl-5-(morpholin-4-yl)-1H-pyrazol-3-yl)-1,5-dihydro-4H-pyrazolo[4,3-c]pyridin-4-one]
JAK3
  inhibition at 1 µM: 100%
TYK2
  inhibition at 1 µM: 100%
JAK2
  inhibition at 1 µM: 100%
JAK1
  inhibition at 1 µM: 99%

## C[C@H](C1CC1)n1cc(-c2cc(N3CCOCC3)n(C)n2)c2[nH]nc(N)c2c1=O [Example 6, 3-amino-5-((1R)-1-cyclopropylethyl)-7-(1-methyl-5-(morpholin-4-yl)-1H-pyrazol-3-yl)-1,5-dihydro-4H-pyrazolo[4,3-c]pyridin-4-one]
JAK3
  inhibition at 1 µM: 98%
TYK2
  inhibition at 1 µM: 100%
JAK2
  inhibition at 1 µM: 93%
JAK1
  inhibition at 1 µM: 96%

— patent US9637483B2, “Heterocyclic compound” (TAKEDA PHARMACEUTICAL COMPANY LIMITED, priority 2013, dated 2017)
